Measurements taken from US10335370B2, “Controlled release composition” (priority 2008, dated 2019).

Tests used:
Assay type in all cases: in vivo
[1] = system: H22 tumor cell; test: Tumor growth inhibition, H22 tumor in mice; conditions: 12 mg/kg i.p., four injections; 15th day after inoculation
Experimental: Cisplatin implant prepared according to Example 5 was used in this study. Ascites fluid was taken from d7 H22 passage mice under sterile conditions, and the ascites fluid was diluted with normal saline to prepare tumor cell suspension at a concentration of 1.0×10^7 cells/ml. Each mouse received a subcutaneous injection of 0.2 ml tumor cell suspension at the right armpit (number of inoculated cells: 2×10^6). The mice were randomized into 6 groups the next day after inoculation, cisplatin implant or excipient control was implanted near the tumor at the seventh day after inoculation. The positive control group received an intraperitoneal injection of cisplatin the next day after inoculation, and four injections in total at an interval of twice a week. The negative control group received an intraperitoneal injection of normal saline the next day after inoculation, and four injections in total at an interval of twice a week. The mice were sacrificed at the 15th day after inoculation, and the tumor mass were peeled and weighted. Tumor growth inhibition rate was calculated using the following equation: […]

[2] = system: SGC-7901 tumor; test: Tumor growth inhibition, SGC-7901 tumor in nude mice; conditions: 1.6 mg ip, four injections; 21st day after inoculation
Experimental: Fluorouracil implant prepared according to Example 2 were used in this study. SGC-7901 tumor tissues at vigorous growth stage were obtained and cut into pieces of about 1.5 mm^3. The tumor tissue pieces were inoculated subcutaneously to the right armpit of nude mice, under sterile conditions. The mice were randomized into 6 groups at the sixth day after inoculation. Three groups were treated with different doses of fluorouracil implant prepared according to Example 2. Another group was treated with excipient at the sixth day after noculation. The fluorouracil implant or excipient was implanted subcutaneously near the tumor. The positive group received four intraperitoneal injections of fluorouracil in total at an interval of twice a week. The negative control group received four intraperitoneal injections of normal saline in total at an interval of twice a week. The mice were sacrificed at the 21st day after inoculation, and the tumor mass were peeled and weighed. The tumor growth inhibition rate was calculated using the following equation: […]

[3] = system: Pancreatic cancer cell line PC3; test: Tumor size, pancreatic cancer PC3 in nude mice; conditions: Group B, i.v. 10 mg/kg
Experimental: Fluorouracil implant composition prepared according to Example 2 was tested for its efficacy on pancreatic cancer. Pancreatic cancer cell line PC3 was cultured and inoculated subcutaneously to 70 nude mice at the right armpit at the dose of 2×10^6 cells per inoculation. Tumor grew to the size of about 4 mm×4 mm×4 mm 4 weeks after the implant. 60 nude mice having tumors of similar sizes were selected and randomized into 5 groups with 12 mice in each group: Group A was administered intravenously through the angular vein with normal saline at the dose of 0.1 ml per mice; Group B was administered intravenously through the angular vein with 0.1 ml fluorouracil solution in normal saline at the dose of 10 mg/kg; Group C was implanted with blank matrix; Group D was implanted with fluorouracil implant composition into the pancreatic tumor mass at the dose of 4 mg/kg; and Group E was implanted with fluorouracil implant composition into the pancreatic tumor mass at the dose of 1 mg/kg. The size of the tumor mass was measured before and after treatment.

SMILES | Tumor growth inhibition rate (%) [1] | Tumor weight X ± SD [1] | Tumor growth inhibition rate (%) [2] | Tumor weight X ± SD [2] | tumor size ([3]; 3rd day) | tumor size ([3]; 6th day) | tumor size ([3]; 10th day) | tumor size ([3]; 14th day) | tumor size ([3]; Before treatment)
N.N.[Cl][Pt][Cl] [cisplatin] | 19.68% | 2.98 ± 1.14 g | – | – | – | – | – | – | –
O=c1[nH]cc(F)c(=O)[nH]1 [fluorouracil] | – | – | 75.76% | 0.71 ± 0.42 g | 72.3 mm^3 | 96.62 ± 20.5 mm^3 | 107.3 ± 20.9 mm^3 | 121.6 ± 14.3 mm^3 | 61.5 ± 8.7 mm^3
